In US20240197756A1, “METHODS OF TREATMENT WITH NEUROACTIVE STEROIDS” (priority 2021, published 2024):

Key:
harmaline-induced tremor = assay: rHIT model, coadministration of Compound 1 and Compound 2; assay type: in vivo, rat; conditions: Compound 2 p.o. 60 min before harmaline
Method: Rat Harmaline Induced Tremor (rHIT): The rHIT model was used to assess the impact of the combination of Compound 1 and Compound 2 on reducing the symptoms of tremor. Male SD rats (SLAC, Shanghai, China) weighing about 250 g at the time of testing were housed in a 12:12 light-dark cycle room throughout the study, with the lights on from 5 a.m. to 5 p.m, and fed ad libitum. […]
The rHIT methods described in Example 5 were used. […] After the 20-minute baseline recording, rats were dosed with harmaline and the post-harmaline effect was measured for 20 minutes. […]

[1] = system: GABAA receptors in the brain; conditions: cited from earlier work; for power of the alpha-band frequency (qEEG): comparator GABAA PAMs, previously shown (FIG. 7); for beta-band frequency (qEEG): comparator marketed GABAA PAMs, previously shown
[2] = system: extrasynaptic form of GABAA receptors; conditions: cited from earlier work
[3] = Khodadoustan et al. (2017); cited from earlier work

| SMILES | power of the alpha-band frequency (qEEG) [1] | beta-band frequency (qEEG) [1] | further results |
| --- | --- | --- | --- |
| CC(C)(C)NC(=O)CN1CCC(CNC(=O)c2cc(F)cc(Cl)c2)CC1 [Compound 2, N-((1-(2-(tert-butylamino)-2-oxoethyl)piperidine-4-yl)methyl)-3chloro-5-fluorobenzamide] | – | – | effect on tremor (harmaline-induced tremor): tremor-reducing effects |
| CC(=O)[C@H]1CC[C@H]2[C@@H]3CC[C@H]4C[C@H](O)CC[C@]4(C)[C@H]3CC[C@]12C [allopregnanolone] | decrease | Increases | potency at synaptic and extrasynaptic receptors [2]: equipotent |
| CCOC(=O)C1=C(COCCN)NC(C)=C(C(=O)OC)C1c1ccccc1Cl (centres unmarked) [amlodipine besylate] | – | – | Cmax, evening administration compared to morning dosing [3]: increased; Tmax, evening administration compared to morning dosing [3]: reduced |
| O=C1Nc2ccc(Cl)cc2C(c2ccccc2Cl)=NC1O (centres unmarked) [lorazepam] | decrease | Increases | – |
